Patent publication US9695155B2, “Herbicidal substituted pyrimidinyloxy benzene compounds” (E. I. DU PONT DE NEMOURS AND COMPANY, priority 2013, dated 2017)

Experiments:
barnyardgrass [1] = test: Test A preemergence; assay type: in vivo, Echinochloa crus-galli; details: for Barnyardgrass plant response rating: 500 g ai/ha
Method in brief: (§1)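 Visual injury scored 0–100 (100 = complete control) against untreated controls about 10 days after treatment in a greenhouse. Test chemicals, formulated with surfactant in non-phytotoxic solvent, were sprayed on soil preemergence or on 2-10 cm, one- to two-leaf plants postemergence.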

large (Lg) crabgrass [2] = test: Test A preemergence; assay type: in vivo, Digitaria sanguinalis; details: for Crabgrass, Large plant response rating: 500 g ai/ha
Method in brief: as §1

giant foxtail [3] = test: Test A preemergence; assay type: in vivo, Setaria faberii; details: for Foxtail, Giant plant response rating: 500 g ai/ha
Method in brief: as §1

morningglory [4] = test: Test A preemergence; assay type: in vivo, Ipomoea spp.; details: for Morningglory plant response rating: 500 g ai/ha
Method in brief: as §1

pigweed [5] = test: Test A preemergence; assay type: in vivo, Amaranthus retroflexus; details: for Pigweed plant response rating: 500 g ai/ha
Method in brief: as §1

velvetleaf [6] = test: Test A preemergence; assay type: in vivo, Abutilon theophrasti; details: for Velvetleaf plant response rating: 500 g ai/ha
Method in brief: as §1

wheat [7] = test: Test A preemergence; assay type: in vivo, Triticum aestivum; details: for Wheat plant response rating: 500 g ai/ha
Method in brief: as §1

corn [8] = test: Test A preemergence; assay type: in vivo, Zea mays; details: for Corn plant response rating: 500 g ai/ha
Method in brief: as §1

barnyardgrass [9] = test: Test A postemergence; assay type: in vivo, Echinochloa crus-galli; details: 0 to 100 scale where 0 is no effect and 100 is complete control
Method in brief: as §1

large (Lg) crabgrass [10] = test: Test A postemergence; assay type: in vivo, Digitaria sanguinalis; details: 0 to 100 scale where 0 is no effect and 100 is complete control
Method in brief: as §1

giant foxtail [11] = test: Test A postemergence; assay type: in vivo, Setaria faberii; details: 0 to 100 scale where 0 is no effect and 100 is complete control
Method in brief: as §1

morningglory [12] = test: Test A postemergence; assay type: in vivo, Ipomoea spp.; details: 0 to 100 scale where 0 is no effect and 100 is complete control
Method in brief: as §1

pigweed [13] = test: Test A postemergence; assay type: in vivo, Amaranthus retroflexus; details: 0 to 100 scale where 0 is no effect and 100 is complete control
Method in brief: as §1

velvetleaf [14] = test: Test A postemergence; assay type: in vivo, Abutilon theophrasti; details: 0 to 100 scale where 0 is no effect and 100 is complete control
Method in brief: as §1

wheat [15] = test: Test A postemergence; assay type: in vivo, Triticum aestivum; details: 0 to 100 scale where 0 is no effect and 100 is complete control
Method in brief: as §1

corn [16] = test: Test A postemergence; assay type: in vivo, Zea mays; details: 0 to 100 scale where 0 is no effect and 100 is complete control
Method in brief: as §1

rice = test: Test B flooded paddy test; assay type: in vivo, Oryza sativa; details: Flood, 250 g ai/ha; 0 to 100 scale where 0 is no effect and 100 is complete control
Method in brief: (§2)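 Greenhouse flooded-pot test: compounds dosed into 3 cm standing water over 2-leaf plants, flood held constant. Rated visually after 13–15 days on 0–100 (complete control = 100); a dash marks no test result.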

sedge, umbrella = test: Test B flooded paddy test; assay type: in vivo, Cyperus difformis; details: Flood, 250 g ai/ha; 0 to 100 scale where 0 is no effect and 100 is complete control
Method in brief: as §2

Heteranthera limosa = test: Test B flooded paddy test; assay type: in vivo; details: Flood, 250 g ai/ha; 0 to 100 scale where 0 is no effect and 100 is complete control
Method in brief: as §2

barnyardgrass [17] = test: Test B flooded paddy test; assay type: in vivo, Echinochloa crus-galli; details: Flood, 250 g ai/ha; 0 to 100 scale where 0 is no effect and 100 is complete control
Method in brief: as §2

[18] = 0 to 100 scale where 0 is no effect and 100 is complete control
[19] = 125 g ai/ha, 0 to 100 scale where 0 is no effect and 100 is complete control
[20] = 0 to 100 scale, 0 no effect, 100 complete control, approx. 10 days

Compound: N#Cc1ccc(Oc2ncc(Cl)cn2)c(-n2cc(Br)cn2)c1 [Compound 213]
- Barnyardgrass plant response rating (0 to 100 scale, 0 is no effect, 100 is complete control) (barnyardgrass [1]; 125 g ai/ha): 0
- Barnyardgrass plant response rating (barnyardgrass [1]; [18]): 10
- Crabgrass, Large plant response rating (0 to 100 scale) (large (Lg) crabgrass [2]; 125 g ai/ha): 10
- Crabgrass, Large plant response rating (large (Lg) crabgrass [2]; [18]): 100
- Foxtail, Giant plant response rating (0 to 100 scale) (giant foxtail [3]; 125 g ai/ha): 20
- Foxtail, Giant plant response rating (giant foxtail [3]; [18]): 100
- Morningglory plant response rating (0 to 100 scale) (morningglory [4]; 125 g ai/ha): 0
- Morningglory plant response rating (morningglory [4]; [18]): 10
- Pigweed plant response rating (0 to 100 scale) (pigweed [5]; 125 g ai/ha): 50
- Pigweed plant response rating (pigweed [5]; [18]): 100
- Velvetleaf plant response rating (0 to 100 scale) (velvetleaf [6]; 125 g ai/ha): 0
- Velvetleaf plant response rating (velvetleaf [6]; [18]): 0
- Wheat plant response rating (0 to 100 scale) (wheat [7]; 125 g ai/ha): 0
- Wheat plant response rating (wheat [7]; [18]): 0
- Corn plant response rating (0 to 100 scale) (corn [8]; 125 g ai/ha): 0
- Corn plant response rating (corn [8]; [18]): 0
- Barnyardgrass plant response rating (barnyardgrass [9]; 125 g ai/ha): 0
- Plant response rating, Barnyardgrass (barnyardgrass [9]; 500 g ai/ha): 10
- Crabgrass, Large plant response rating (large (Lg) crabgrass [10]; 125 g ai/ha): 20
- Plant response rating, Crabgrass, Large (large (Lg) crabgrass [10]; 500 g ai/ha): 70
- Foxtail, Giant plant response rating (giant foxtail [11]; 125 g ai/ha): 10
- Plant response rating, Foxtail, Giant (giant foxtail [11]; 500 g ai/ha): 30
- Morningglory plant response rating (morningglory [12]; 125 g ai/ha): 20
- Plant response rating, Morningglory (morningglory [12]; 500 g ai/ha): 30
- Pigweed plant response rating (pigweed [13]; 125 g ai/ha): 100
- Plant response rating, Pigweed (pigweed [13]; 500 g ai/ha): 100
- Velvetleaf plant response rating (velvetleaf [14]; 125 g ai/ha): 10
- Plant response rating, Velvetleaf (velvetleaf [14]; 500 g ai/ha): 20
- Wheat plant response rating (wheat [15]; 125 g ai/ha): 0
- Plant response rating, Wheat (wheat [15]; 500 g ai/ha): 0
- Corn plant response rating (corn [16]; 125 g ai/ha): 0
- Plant response rating, Corn (corn [16]; 500 g ai/ha): 30
- Plant response rating, Rice (rice): 0
- Plant response rating, Sedge, Umbrella (sedge, umbrella): 70
- Plant response rating, Ducksalad (Heteranthera limosa): 0
- Plant response rating, Barnyardgrass (barnyardgrass [17]): 0

Compound: N#Cc1cccc(Oc2ncc(Cl)cn2)c1-n1cc(Br)cn1 [Compound 235]
- Barnyardgrass plant response rating (0 to 100 scale, 0 is no effect, 100 is complete control) (barnyardgrass [1]; 125 g ai/ha): 0
- Barnyardgrass plant response rating (barnyardgrass [1]; [18]): 10
- Crabgrass, Large plant response rating (0 to 100 scale) (large (Lg) crabgrass [2]; 125 g ai/ha): 70
- Crabgrass, Large plant response rating (large (Lg) crabgrass [2]; [18]): 100
- Foxtail, Giant plant response rating (0 to 100 scale) (giant foxtail [3]; 125 g ai/ha): 30
- Foxtail, Giant plant response rating (giant foxtail [3]; [18]): 100
- Morningglory plant response rating (0 to 100 scale) (morningglory [4]; 125 g ai/ha): 0
- Morningglory plant response rating (morningglory [4]; [18]): 0
- Pigweed plant response rating (0 to 100 scale) (pigweed [5]; 125 g ai/ha): 90
- Pigweed plant response rating (pigweed [5]; [18]): 100
- Velvetleaf plant response rating (0 to 100 scale) (velvetleaf [6]; 125 g ai/ha): 0
- Velvetleaf plant response rating (velvetleaf [6]; [18]): 0
- Wheat plant response rating (0 to 100 scale) (wheat [7]; 125 g ai/ha): 0
- Wheat plant response rating (wheat [7]; [18]): 0
- Corn plant response rating (0 to 100 scale) (corn [8]; 125 g ai/ha): 0
- Corn plant response rating (corn [8]; [18]): 0
- Barnyardgrass plant response rating (barnyardgrass [9]; 125 g ai/ha): 0
- Plant response rating, Barnyardgrass (barnyardgrass [9]; 500 g ai/ha): 0
- Crabgrass, Large plant response rating (large (Lg) crabgrass [10]; 125 g ai/ha): 10
- Plant response rating, Crabgrass, Large (large (Lg) crabgrass [10]; 500 g ai/ha): 30
- Foxtail, Giant plant response rating (giant foxtail [11]; 125 g ai/ha): 0
- Plant response rating, Foxtail, Giant (giant foxtail [11]; 500 g ai/ha): 30
- Morningglory plant response rating (morningglory [12]; 125 g ai/ha): 30
- Plant response rating, Morningglory (morningglory [12]; 500 g ai/ha): 30
- Pigweed plant response rating (pigweed [13]; 125 g ai/ha): 90
- Plant response rating, Pigweed (pigweed [13]; 500 g ai/ha): 100
- Velvetleaf plant response rating (velvetleaf [14]; 125 g ai/ha): 30
- Plant response rating, Velvetleaf (velvetleaf [14]; 500 g ai/ha): 30
- Wheat plant response rating (wheat [15]; 125 g ai/ha): 0
- Plant response rating, Wheat (wheat [15]; 500 g ai/ha): 0
- Corn plant response rating (corn [16]; 125 g ai/ha): 0
- Plant response rating, Corn (corn [16]; 500 g ai/ha): 0
- Plant response rating, Rice (rice): 0
- Plant response rating, Sedge, Umbrella (sedge, umbrella): 0
- Plant response rating, Ducksalad (Heteranthera limosa): 0
- Plant response rating, Barnyardgrass (barnyardgrass [17]): 0

Compound: O=Cc1cccc(Oc2ncc(F)cn2)c1-n1cc(Cl)cn1 [Compound 93]
- Plant response rating, Barnyardgrass (barnyardgrass [1]; [19]): 0
- Barnyardgrass plant response rating (barnyardgrass [1]; [20]): 0
- Plant response rating, Crabgrass, Large (large (Lg) crabgrass [2]; [19]): 0
- Crabgrass, Large plant response rating (large (Lg) crabgrass [2]; [20]): 30
- Plant response rating, Foxtail, Giant (giant foxtail [3]; [19]): 0
- Foxtail, Giant plant response rating (giant foxtail [3]; [20]): 0
- Plant response rating, Morningglory (morningglory [4]; [19]): 0
- Morningglory plant response rating (morningglory [4]; [20]): 0
- Plant response rating, Pigweed (pigweed [5]; [19]): 0
- Pigweed plant response rating (pigweed [5]; [20]): 30
- Plant response rating, Velvetleaf (velvetleaf [6]; [19]): 0
- Plant response rating, Wheat (wheat [7]; [19]): 0
- Plant response rating, Corn (corn [8]; [19]): 0
- Corn plant response rating (corn [8]; [20]): 0
- Plant response rating, Barnyardgrass (barnyardgrass [9]; 125 g ai/ha): 0
- Plant response rating, Barnyardgrass (barnyardgrass [9]; 500 g ai/ha): 0
- Plant response rating, Crabgrass, Large (large (Lg) crabgrass [10]; 125 g ai/ha): 0
- Plant response rating, Crabgrass, Large (large (Lg) crabgrass [10]; 500 g ai/ha): 0
- Plant response rating, Foxtail, Giant (giant foxtail [11]; 125 g ai/ha): 0
- Plant response rating, Foxtail, Giant (giant foxtail [11]; 500 g ai/ha): 0
- Plant response rating, Morningglory (morningglory [12]; 125 g ai/ha): 0
- Plant response rating, Morningglory (morningglory [12]; 500 g ai/ha): 0
- Plant response rating, Pigweed (pigweed [13]; 125 g ai/ha): 0
- Plant response rating, Pigweed (pigweed [13]; 500 g ai/ha): 0
- Plant response rating, Velvetleaf (velvetleaf [14]; 125 g ai/ha): 0
- Plant response rating, Velvetleaf (velvetleaf [14]; 500 g ai/ha): 0
- Plant response rating, Wheat (wheat [15]; 125 g ai/ha): 0
- Plant response rating, Wheat (wheat [15]; 500 g ai/ha): 0
- Plant response rating, Corn (corn [16]; 125 g ai/ha): 0
- Plant response rating, Corn (corn [16]; 500 g ai/ha): 0
- Plant response rating, Rice (rice): 0
- Plant response rating, Sedge, Umbrella (sedge, umbrella): 0
- Plant response rating, Ducksalad (Heteranthera limosa): 0
- Plant response rating, Barnyardgrass (barnyardgrass [17]): 0
